The results in this text go back to ChEMBL document CHEMBL4346659, “Design, synthesis and evaluation of novel 7H-pyrrolo[2,3-d]pyrimidin-4-amine derivatives as potent, selective and reversible Bruton's tyrosine kinase (BTK) inhibitors for the treatment of rheumatoid arthritis” (Eur J Med Chem, 2019).

One may read the inhibition as the change of the read-out against control, counted positive when it falls. In general, pIC50 refers to −log10 of the IC50, conventionally taken in molar units.

pIC50: −log10 of the molar value.

For assay [1], the target named is T1, Tyrosine-protein kinase BTK (Homo sapiens, UniProt Q06187). Description: Inhibition of BTK (unknown origin) at 1 uM in the presence of ATP by caliper mobility shift assay relative to control.
T1 sequence (Q06187 whole entry): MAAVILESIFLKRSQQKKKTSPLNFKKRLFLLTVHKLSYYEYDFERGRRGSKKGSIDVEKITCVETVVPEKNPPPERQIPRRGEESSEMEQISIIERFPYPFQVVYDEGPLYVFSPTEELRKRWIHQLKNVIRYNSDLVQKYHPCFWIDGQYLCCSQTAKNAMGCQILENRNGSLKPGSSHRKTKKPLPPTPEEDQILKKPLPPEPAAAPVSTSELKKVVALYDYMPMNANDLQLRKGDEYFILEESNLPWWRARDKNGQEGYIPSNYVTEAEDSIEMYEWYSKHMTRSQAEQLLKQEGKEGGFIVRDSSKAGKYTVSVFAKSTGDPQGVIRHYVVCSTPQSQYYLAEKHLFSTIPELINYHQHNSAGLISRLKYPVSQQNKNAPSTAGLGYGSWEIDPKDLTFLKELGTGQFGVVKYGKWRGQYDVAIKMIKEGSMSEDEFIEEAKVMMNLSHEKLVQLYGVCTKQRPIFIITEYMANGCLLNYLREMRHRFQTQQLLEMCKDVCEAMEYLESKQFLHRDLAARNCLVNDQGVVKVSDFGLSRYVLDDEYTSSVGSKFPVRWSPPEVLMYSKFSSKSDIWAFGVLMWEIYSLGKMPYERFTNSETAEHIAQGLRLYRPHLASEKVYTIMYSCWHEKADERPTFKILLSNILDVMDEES
The test system of another assay is Ramos. Description: Antiproliferative activity against human Ramos cells. It is filed as functional, cell-based. The arrangement: fold change (FC): reference not given here. Particulars: for pIC50: Homo sapiens, Ramos.
Assay [2] has as its target T1, Tyrosine-protein kinase BTK. Description: Inhibition of BTK (unknown origin) in the presence of ATP by caliper mobility shift assay.
The subject of another assay is JeKo-1. Description: Antiproliferative activity against human JeKo1 cells. Details: fold change (FC): reference not given here. It is filed as functional, cell-based. Particulars: for pIC50: Homo sapiens, JeKo-1.
Assay [3] concerns the target T1, Tyrosine-protein kinase BTK. Description: Inhibition of BTK (unknown origin) at 0.1 uM in the presence of ATP by caliper mobility shift assay relative to control.
The next assay relates to Daudi. Kind of assay: Antiproliferative activity against human Daudi cells. Particulars: for pIC50: Homo sapiens, Daudi. It is filed as functional, cell-based. Details: fold change (FC): reference not given here.

Turning to `Nc1ncnc2c1c(-c1ccc3c(c1)OCO3)cn2[C@@H]1CCN(C[C@H]2CO2)C1`, the inhibition was found to be 42% in assay [1] and 15.2% in assay [3]. Further, the negative-log IC50 (pIC50) is < 4.30 in the assay on Ramos, < 6.30 in assay [2], 4.49 in the assay on JeKo-1 and 4.27 in the assay with Daudi.

As to `Nc1ncnc2c1c(-c1ccc3c(c1)OCO3)cn2[C@H]1CCN(C[C@@H]2CO2)C1`, the inhibition in assay [1] was determined as 93.5%; in assay [3], 87.6%. The negative logarithm of the IC50 (pIC50) with Ramos was 4.90; in assay [2] it was 7.44; in the assay on JeKo-1, 5.47; in the assay with Daudi, 5.62.

As to `Nc1ncnc2c1c(-c1ccc(Oc3ccccc3)cc1)cn2[C@H]1CCN(C[C@@H]2CO2)C1`, the inhibition in assay [1] came to 98.1%; in assay [3] it was 79.1%. Besides, the pIC50 in the assay on Ramos is 5.17; in assay [2], 7.51; in the assay with JeKo-1, 5.83; in the assay on Daudi, 5.26.

As for `CC1(CN2CC[C@H](n3cc(-c4ccc5c(c4)OCO5)c4c(N)ncnc43)C2)COC1`, the inhibition came to 36.1% in assay [1] and 13.9% in assay [3]. The negative logarithm of the IC50 (pIC50) was 4.69 with Ramos, < 6.30 in assay [2], 4.72 in the assay with JeKo-1 and 4.35 in the assay on Daudi.

Regarding `Nc1ncnc2c1c(-c1ccc3c(c1)OCO3)cn2[C@H]1CCN(C2COC2)C1`, the inhibition in assay [1] was 52%; in assay [3], 19.7%. For the same compound, the negative-log IC50 (pIC50) is < 4.30 in the assay on Ramos, < 6.30 in assay [2], < 4.30 in the assay with JeKo-1 and < 4.30 in the assay on Daudi.

Regarding `Nc1ncnc2c1c(-c1ccc3c(c1)OCO3)cn2C[C@@H]1CCN(C[C@@H]2CO2)C1`, the inhibition came out at 86.3% in assay [1] and 48.3% in assay [3]. For the same compound, the negative logarithm of the IC50 (pIC50) in the assay with Ramos is 4.88; in assay [2], 6.91; in the assay with JeKo-1, 4.99; with Daudi, 4.80.

For `NC(=O)CN1CC[C@H](n2cc(-c3ccc4c(c3)OCO4)c3c(N)ncnc32)C1`, the figures for the inhibition in assay [1] and in assay [3] were 48.6% and 12.6%, respectively. Also, the negative-log IC50 (pIC50) with Ramos is 4.88; in assay [2], < 6.30; with JeKo-1 it was 5.30; in the assay on Daudi it was 5.46.

As for `Nc1ncnc2c1c(-c1ccc3c(c1)OCO3)cn2[C@H]1CCN(C[C@H]2CO2)C1`, the inhibition in assay [1] turned out to be 86.5%; in assay [3], 62.2%. For the same compound, the pIC50 was 5.30 in the assay with Ramos, 7.38 in assay [2], 5.64 in the assay with JeKo-1 and 5.61 with Daudi.

`Nc1ncnc2c1c(-c1ccc3c(c1)OCO3)cn2C[C@H]1CCCN1C[C@@H]1CO1`: the values for the inhibition in assay [1] and in assay [3] were 94.5% and 81.6%, respectively. Further, the pIC50 with Ramos is 4.75; in assay [2] it was 8.05; with JeKo-1, 5.32; in the assay with Daudi it was 5.05.

Turning to `Nc1ncnc2c1c(-c1ccc3c(c1)OCO3)cn2C[C@@H]1CCCN(C[C@@H]2CO2)C1`, the figures for the inhibition in assay [1] and in assay [3] were 49.2% and 16.2%, respectively. Moreover, the pIC50 in the assay on Ramos was 4.88; in the assay with JeKo-1 it was 5.05; with Daudi it was 4.98.

For the compound `Nc1ncnc2c1c(-c1ccc3c(c1)OCO3)cn2[C@H]1CCN(CC2CO2)C1` (some centres undefined), the inhibition in assay [1] came to 96.6%; in assay [3], 70.1%. In addition, the pIC50 in assay [2] is 7.34.

Consider `Nc1ncnc2c1c(-c1ccc3c(c1)OCO3)cn2[C@H]1CCN(CC2CCCO2)C1` (some centres undefined), for which the values for the inhibition in assay [1] and in assay [3] were 18.9% and 3.01%, respectively. Besides, the pIC50 was 4.57 with Ramos, 5.41 in the assay with JeKo-1 and 4.59 in the assay on Daudi.

As to `Nc1ncnc2c1c(-c1ccc(Oc3ccccc3)cc1)cn2[C@H]1CCN(C[C@H]2CO2)C1`, the inhibition in assay [1] is 90.1%; in assay [3], 52%. For the same compound, the “fold change (FC)” value in the assay on Ramos, in the assay on JeKo-1 and in the assay with Daudi was 3 - 10 throughout. The negative-log IC50 (pIC50) in the assay on Ramos was < 4.30; in assay [2], 7.05; in the assay on JeKo-1, 5.29; in the assay on Daudi, 4.80.

As for `COC(CN1CC[C@H](n2cc(-c3ccc4c(c3)OCO4)c3c(N)ncnc32)C1)OC`, the figures for the inhibition in assay [1] and in assay [3] were 37.1% and 4.71%, respectively. Moreover, the pIC50 was 4.60 in the assay on Ramos, 5.61 with JeKo-1 and 4.27 in the assay on Daudi.

`CN(C)CC(=O)N1CC[C@H](n2cc(-c3ccc4c(c3)OCO4)c3c(N)ncnc32)C1`: the inhibition was 23.7% in assay [1] and -0.41% in assay [3]. Besides, the negative-log IC50 (pIC50) in the assay with Ramos was 4.68; with JeKo-1, 4.55; in the assay with Daudi it was 4.64.

Take `Nc1ncnc2c1c(-c1ccc(Oc3ccccc3)cc1)cn2C[C@H]1CCCN1C(CO)CO`: the inhibition in assay [1] was found to be 54.7%; in assay [3], 18.3%. For the same compound, the negative-log IC50 (pIC50) is 4.82 in the assay on Ramos, 4.84 with JeKo-1 and 4.55 with Daudi.

With `COCCN1CC[C@H](n2cc(-c3ccc4c(c3)OCO4)c3c(N)ncnc32)C1`, the inhibition in assay [1] stood at 8.09%; in assay [3], 14.3%. For the same compound, the results for the pIC50 in the assay on Ramos, in the assay with JeKo-1 and with Daudi were 4.67, 5.17 and 5.37, respectively.

On to `Nc1ncnc2c1c(-c1ccc3c(c1)OCO3)cn2[C@H]1CCN(C(=O)C2CC2)C1`, for which the figures for the inhibition in assay [1] and in assay [3] were 34% and -3.67%, respectively. Also, the pIC50 in assay [2] was 7.35.

Turning to `Nc1ncnc2c1c(-c1ccc3c(c1)OCO3)cn2[C@H]1CCN(C(=O)c2ccccc2)C1`, the inhibition in assay [1] was determined as 29.4%; in assay [3], 37.1%. Besides, the negative-log IC50 (pIC50) in the assay on Ramos is 4.45; in the assay with JeKo-1, 4.77; in the assay on Daudi, 5.08.

`Nc1ncnc2c1c(-c1ccc3c(c1)OCO3)cn2CC1CCCO1` (centres undefined): the results for the inhibition in assay [1] and in assay [3] were 21.8% and -6.11%, respectively. Besides, the pIC50 is 4.62 in the assay on Ramos, 4.77 with JeKo-1 and 4.68 in the assay with Daudi.

Regarding `CC(C)(C)c1ccc(Oc2ccc(-c3cn([C@H]4CCN(C[C@@H]5CO5)C4)c4ncnc(N)c34)cc2)cc1`, the values for the inhibition in assay [1] and in assay [3] were 19.1% and 5.96%, respectively. Moreover, the negative-log IC50 (pIC50) was 4.95 in the assay with Ramos, 4.83 in the assay on JeKo-1 and 5.19 in the assay on Daudi.

For the compound `Nc1ncnc2c1c(-c1ccc3c(c1)OCO3)cn2[C@H]1CCN(S(=O)(=O)C2CC2)C1`, the inhibition in assay [1] worked out at 37.2%; in assay [3], 1.64%. Further, the pIC50 with Ramos is 5.11; in the assay with JeKo-1, 4.93; in the assay with Daudi, 4.78.

On to `CC(C)(C)c1ccc(CN2CC[C@H](n3cc(-c4ccc5c(c4)OCO5)c4c(N)ncnc43)C2)cc1`, for which the inhibition turned out to be 3% in assay [1] and 0.01% in assay [3]. In addition, the pIC50 with Ramos is 5.36; in the assay on JeKo-1, 5.68; in the assay with Daudi, 4.88.

Regarding `Nc1ncnc2c1c(-c1ccc3c(c1)OCO3)cn2C1CCN(C2COC2)CC1`, the inhibition was found to be 45.7% in assay [1] and 9.5% in assay [3]. Also, the results for the negative logarithm of the IC50 (pIC50) in the assay with Ramos, in the assay on JeKo-1 and with Daudi were 4.42, 4.77 and 4.62, respectively.

In the case of `Nc1ncnc2c1c(-c1ccc3c(c1)OCO3)cn2C[C@@H]1CCCN1C[C@@H]1CO1`, the inhibition in assay [1] came to 47.6%; in assay [3], 13.5%. Further, the pIC50 in the assay on Ramos was 4.54; with JeKo-1 it was 4.67; in the assay with Daudi, 4.72.
